Read-outs that look alike come from different tables or passages of the source.
What was measured:
[1] = tested on: myeloid cell line derived from MUTZ-3
[2] = tested on: myeloid cell line derived from MUTZ-3; remark: listed apart in the source
[3] = tested on: myeloid cell line derived from MUTZ-3; experiment: GARD random forest model predicting CLP categories (52 transcripts, Example A); details: test set; for GARD predicted CLP: majority voting across replicates; for predicted CLP: separate replicates
[4] = tested on: myeloid cell line derived from MUTZ-3; remark: listed apart in the source
[5] = tested on: myeloid cell line derived from MUTZ-3; experiment: Cytotoxicity / viability by flow cytometry (propidium iodide), 24 hours exposure; details: yes/no; MUTZ-3 derived cells
[6] = cited from earlier work; for true CLP: test set
[7] = cited from earlier work
[8] = tested on: myeloid cell line derived from MUTZ-3; experiment: GARD binary classification (SVM on GARD prediction signature, 200 transcripts); details: SVM, median calibrated decision value of replicates >0 = sensitizer

## CCCCC/C(=C/c1ccccc1)CO [amylcinnamyl alcohol]
[1]
  cytotox: yes
[2]
  GARD binary prediction: S

## Nc1ccccc1 [aniline]
[2]
  GARD binary classification relative to cut-off defined by benchmark samples: close to the cut-off

## CC(C)(c1ccc(OCC2CO2)cc1)c1ccc(OCC2CO2)cc1 (stereo not drawn) [bisphenol A-diglycidyl ether]
[2]
  GARD binary prediction: S
[3]
  GARD predicted CLP: 1A
  predicted CLP: 1A

## CCCCOCC1CO1 (stereo not drawn) [butyl glycidyl ether]
[1]
  cytotox: yes
[2]
  GARD binary classification relative to cut-off defined by benchmark samples: close to the cut-off
[4]; human, 24 h
  GARD predicted CLP: 1A

## CCOc1cc(C=O)ccc1O [ethyl vanillin]
[4]
  GARD predicted CLP: no cat
  predicted CLP: no cat
[4]; human, 24 h
  predicted CLP: 1B

## CCCOC(=O)c1cc(O)c(O)c(O)c1 [propyl gallate]
[5]
  cytotox: yes
[6]; CLP annotation of 37 novel chemicals
  CLP: 1A
[6]; chemicals of random forest training and test set
  CLP: 1A
[6]; sens / non-sens, chemicals of random forest training and test set
  binary class: sens
[6]; per replicate line
  true CLP: 1A
[6]
  true CLP: 1A
[3]
  GARD predicted CLP: 1A
  predicted CLP: 1A
[7]; based on human potency [41] where available, otherwise according to CLP
  binary class (HP*): S (HP 1-4 = S)
[7]; human potency, chemicals of random forest training and test set
  HP: 2
[7]; test set
  Human potency [41]: 2
[8]
  GARD binary prediction: S
